Data reported in BigSolDB 2.1.

O=C(O)c1cccc(Cl)c1C(=O)O
in water
Settings	solubility (mole fraction)
283.15 K	0.00201
288.15 K	0.00221
293.15 K	0.00248
298.15 K	0.00281
303.15 K	0.00315
308.15 K	0.00346
313.15 K	0.00383
318.15 K	0.0043
323.15 K	0.00473
328.15 K	0.00517
333.15 K	0.0056

O=C1OC(=O)c2cc(Cl)ccc21
solubility (mole fraction)
Settings	283.15 K	288.15 K	293.15 K	298.15 K	303.15 K	308.15 K	313.15 K	318.15 K	323.15 K
in 1,4-dioxane	0.0825	0.0992	0.124	0.142	0.166	0.205	0.25	0.298	0.359
in acetone	0.201	0.222	0.246	0.287	0.316	0.369	0.427	0.473	0.522
in ethyl acetate	0.178	0.184	0.206	0.228	0.261	0.293	0.326	0.377	0.437

O=C(O)c1ccc(Cl)cc1C(=O)O
in water
Settings	solubility (mole fraction)
283.15 K	0.0802
288.15 K	0.0913
293.15 K	0.109
298.15 K	0.125
303.15 K	0.145
308.15 K	0.169
313.15 K	0.2
318.15 K	0.226
323.15 K	0.262
328.15 K	0.299
333.15 K	0.349

O=C1OC(=O)c2c(Cl)cccc21
solubility (mole fraction)
Settings	283.15 K	288.15 K	293.15 K	298.15 K	303.15 K	308.15 K	313.15 K	318.15 K	323.15 K
in 1,4-dioxane	0.185	0.226	0.268	0.296	0.328	0.367	0.396	0.42	0.439
in acetone	0.167	0.182	0.202	0.218	0.234	0.261	0.291	0.32	0.357
in ethyl acetate	0.107	0.112	0.121	0.133	0.154	0.169	0.191	0.225	0.265
